One molecule from patent US20260335468A1, “MOLECULAR RADIOAFTERGLOW PROBES FOR CANCER RADIODYNAMIC THERANOSTICS” (NANYANG TECHNOLOGICAL UNIVERSITY, priority 2023, published 2026) can be followed below.

Data set [1] in a line: Radio afterglow spectra, intensity and half-life of luminophores in PBS after X-ray. In kind it is physicochemical. On the procedure:
The optical properties of DPAs and IDPAs were investigated in an aqueous solution (FIGS. 2 and 3). […] Their half-lives ranged from 9.2 to 196.8 min (FIG. 4e).
DPAs or IDPAs (100 μM) in 0.01 M PBS (pH 7.4, 50% DMSO) were irradiated by X-rays at 250 μGy s^−1 for 20 s (total, 5 mGy) under the specific setup parameter of 10 kV and 75 μA. Then, the radio afterglow signal was collected with an IVIS imaging system under the bioluminescence mode with an open filter and an acquisition time of 60 s. Finally, the radio afterglow intensities were quantified by a region-of-interest analysis using Living Image 4.3 software. In addition, the radio afterglow spectra of the candidates were acquired under the same test conditions with specific emission filters, and time courses of the signal were recorded as a function of time.

The nature of data set [2]: O2·^− detection with DHR123 upon X-ray irradiation. In kind it is physicochemical. Conditions: elevated radiation dosage. On the procedure: (§1) To study other ROS generation, fluorescence sensors DHR123 (for O2·^− detection) and HPF (for ·OH detection) were used. For O2·^− detection, DHR123 (10 PM) was added to a solution of IDPASu (10 M) in PBS (0.01 M pH 7.4, 50% DMSO), followed by X-ray irradiation at different doses of 5 mGy (250 μGy s^−1 for 20 s) and 2 Gy (100 mGy s^1 for 20 s). The fluorescence changes in DHR123 were recorded at λex of 505 nm and λem of 534 nm. For ·OH detection, HPF ([…]) was added in a solution of IDPASu (10 M) in PBS (0.01 M, pH 7.4, 50% DMF), followed by X-ray irradiation at different doses, namely, 5 mGy (250 μGy s^−1 for 20 s) and 2 Gy (100 mGy s^−1 for 20 s). The fluorescence changes in HPF were collected at ex of 450 nm and λem of 515 nm. The ROS production was calculated by the corresponding standard curve.

A short description of data set [3]: ·OH and other ROS detection (HPF) upon X-ray irradiation. In kind it is physicochemical. On the procedure: as §1
A short description of data set [4]: HPLC analysis of IDPASu after X-ray irradiation. In kind it is physicochemical. On the procedure:
HPLC purification and analyses were performed with an Agilent 1260 system using methanol/H2O or acetonitrile/H2O as an eluent. X-ray irradiation was conducted with MOXTEK MAGPRO (Moxtek, Inc. 452 West 1260 North Orem, UT 84057) and the dose was calibrated by RAYSAFE R/F X2 X (FLUKE, USA). White-light irradiation was used by a xenon lamp PLS-SEX300D (Beijing Perfectlight Technology Co., Ltd.).
To study the radio afterglow mechanism, the sample of IDPASu after X-ray irradiation was analysed with HPLC and high-resolution mass spectrometry.

Data set [5] in a line: ^1O2 generation at tissue depth (X-ray or light through chicken breast tissue). In kind it is physicochemical. On the procedure: To study ^1O2 generation, a mixture of DPAS or IDPAS (100 M) and TEMP (10 mM) in PBS (0.01 M, pH 7.4, 50% DMSO) was irradiated by X-rays at 2 Gy (100 mGy s^−1 for 20 s) or 5 mGy (250 μGy s^−1 for 20 s). The ESR signals of the mixture were recorded with a Bruker A300 instrument. The ESR signal of the free radical 2,2,6,6-tetramethyl-1-piperidinyloxyl (g=2.0060) was generated by the reaction of ^1O2 with TEMP. The ^1O2 quencher NaN3 (1 mM) was added to validate the afterglow mechanism of IDPASu. Additionally, other commercially available radio sensitizers (such as acridine orange, hematoporphyrin and verteporfin) were measured and compared. The procedure of block depths was similar to that of the tissue penetration depth study and the ^1O2 generation for different depth tissues was measured. The ESR signal changes of MRAP in the absence or presence of CatB were measured in a similar way. The ESR signals of 2,2,6,6-tetramethyl-1-piperidinyloxyl from the reaction of ^1O2 with TEMP were plotted as a function of the concentration of ^1O2, which was generated by the addition of NaOCl to H2O2. This generated the standard curve between the ESR intensity and ^1O2 concentration.
The deep-tissue radiodynamic process of IDPASu was tested by measuring ^1O2 generation at different tissue depths and compared with photosensitization (FIG. 11c).

Data set [6] can be described thus: In vivo limit of detection of subcutaneously injected IDPASu (radio afterglow). The following applies: subcutaneous injection, X-ray 5 mGy, LOD=3σ/k. Also on record: species or system mouse (BALB/c nude). On the procedure:
To test the LOD of IDPASu for in vivo RAI, 20 μl of the mixture solution of IDPASu at different concentrations (100.0, 50.0, 20.0, 10.0, 5.0, 1.0, 0.5 and 0 μM) and solubilizing agent (2-carboxyethyl)-o-cyclodextrin sodium salt (β-CD) at 100 μM was subcutaneously injected into the left flank of BALB/c nude mice (six weeks old). After 30 min, the left flank of mice were irradiated with X-rays at 5 mGy (250 μGy s^−1 for 20 s) as the other areas were protected by a 3.4-mm-thick lead shield with a notch under the X-ray irradiation. Radio afterglow signals were recorded. The detection limit was calculated using this equation: LOD=3σ/k, where a represents the s.d. of blank and k implies the slope of the radio afterglow intensities.

Data set [7] is described as follows: X-ray-induced NIR afterglow properties (Table 3). Conditions: X-ray 0.005 Gy. An excerpt: To enable radio afterglow for organic molecules, we proposed a radiodynamic approach based on organic luminophores (DPAs and IDPAs) that were able to harvest X-ray energy for an in situ cycloaddition reaction to form self-luminescent chemical defects (FIG. 4b). This is mechanistically different from inorganic nanophosphors wherein the host materials (for example, fluoride and aluminosilicate) absorb X-rays, lattice defects delay excitons, and rare-earth/transition metal ion dopants (for example, Nd^3+ and Eu^3+) emit light (Richard, C. & Viana, B., Light.: Sci. Appl. 2022, 11, 123). Because of the presence of heavy atoms (iodine), IDPAs had higher radiodynamic ^1O2 generation and stronger radio afterglow emission than the iodine-free counterpart (DPAs). The radio afterglow dynamic processes of IDPAs were inducible even at a tissue depth of 15 cm, which was impossible when using light.

The mark [8] stands for this setting: X-ray 2 Gy, 100 mGy s^−1 for 20 s.

Turning to `COC(=C1C2CC3CC(C2)CC1C3)c1cc(O)c(I)cc1/C=C/C1=CC(=C(C#N)C#N)c2ccccc2S1` [IDPASu], the “radio afterglow intensity increase versus iodine-free counterpart” value in data set [1] (100 μM, PBS pH 7.4, 50% DMSO, X-ray 5 mGy) is recorded as 6.46 fold. Further, the “correlation of radio afterglow signal with concentration” value in data set [1] (IDPASu solution) was “linear correlation”. Besides, in data set [1] (X-ray 250 μGy s^−1 for 20 s), the “long-lasting radio afterglow, up to” value is ~ 25 h. In addition, the “radio afterglow emission maximum” value in data set [1] (X-ray 250 μGy s^−1 for 20 s, aqueous solution) was ~ 773 nm. The “radio afterglow brightness / intensity” value in data set [1] (X-ray irradiation) is “highest brightness”. Also, the “repetitive induction of radio afterglow” value in data set [1] (after ten cycles of X-ray irradiation) was “minimal intensity decrease after ten cycles”. Besides, the “O2·^− generation” value in data set [2] was “only minimal O2·^− could be generated”. Further, the “HPF+IDPASu (+X-ray) versus HPF+IDPASu (−X-ray), ·OH” value in data set [3] (250 μGy s^−1 or 100 mGy s^−1 for 20 s) is recorded as “not significant”. For the same molecule, the “other ROS generation” value in data set [3] (X-ray irradiation) is recorded as “undetectable”. Moreover, in data set [4] (setting [8]), the “conversion yield to activated IDPASu (peak at 6.0 min)” value worked out at 7.6% and the “conversion yield to dioxetane compound (peak at 14.8 min)” value is listed as 3.3%. In addition, the “luminophore consumed by one cycle of irradiation” value in data set [4] (one cycle at 250 μGy s^−1 for 20 s, HPLC) was ~ 3%. Moreover, in data set [5] (X-ray through 1 cm tissue), the “decrease of ^1O2 concentration at tissue depth of 1 cm, X-ray” value was ~ 30%. In data set [5] (X-ray through 15 cm tissue), the “radiodynamic ^1O2 generation at tissue depth of 15 cm” value was “still inducible”. The “^1O2 generation at tissue depth of 1 cm, light irradiation” value in data set [5] (light through 1 cm tissue) is on record as “close to the background”. Moreover, the “limit of detection (LOD), in vivo imaging” value in data set [6] stood at 49 nM. In data set [7], this molecule displayed an afterglow half-life of 18.4 min, an afterglow life-time of 25 h and a λem of roughly 773 nm.
